#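 Five compound concentrations were applied to cells in 96-well plates for 48 hours; endpoints were derived by simple linear interpolation of the resulting dose-response curve. Definition used: TGI = concentration required for complete inhibition of growth.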
# Tested on: SK-MEL-28 melanoma
# Assay: DTP human tumour cell line panel, 48 h
row,SMILES,TGI [µM]
1,O=[N+]([O-])c1ccc(C2=Nn3c(nnc3-c3ccccc3)SC2)o1,> 100

# Tested on: SK-MEL-5 melanoma
# Assay: DTP human tumour cell line panel, 48 h
row,SMILES,TGI [µM]
1,CC(C)NCCCC(C)Nc1ccnc2ccc3nn(C)nc3c12 (stereo not given),> 100
2,O=C(NN1C(=O)C(Cl)C1c1ccc(O)cc1)c1ccccc1O (stereo not given),27.7
3,O/N=C1/C(=C/c2ccc(Cl)c(Cl)c2)CCCC1C(NO)c1ccc(Cl)c(Cl)c1 (stereo not given),35.3
4,CCOc1ccc(N=Nc2ccc3oc(=O)c(/C(C)=N/NC(=O)CC(=O)Nc4cccc(OC)c4)cc3c2)cc1,58.4
5,O=[N+]([O-])c1ccc(C2=Nn3c(nnc3-c3ccccc3)SC2)o1,32.6

# Tested on: SK-OV-3 ovarian
# Assay: DTP human tumour cell line panel, 48 h
row,SMILES,TGI [µM]
1,CC(C)NCCCC(C)Nc1ccnc2ccc3nn(C)nc3c12 (stereo not given),> 100
2,O=C(NN1C(=O)C(Cl)C1c1ccc(O)cc1)c1ccccc1O (stereo not given),59.5
3,O/N=C1/C(=C/c2ccc(Cl)c(Cl)c2)CCCC1C(NO)c1ccc(Cl)c(Cl)c1 (stereo not given),39.1
4,CCOc1ccc(N=Nc2ccc3oc(=O)c(/C(C)=N/NC(=O)CC(=O)Nc4cccc(OC)c4)cc3c2)cc1,82.3
5,O=[N+]([O-])c1ccc(C2=Nn3c(nnc3-c3ccccc3)SC2)o1,> 100

# Tested on: SN12C renal
# Assay: DTP human tumour cell line panel, 48 h
row,SMILES,TGI [µM]
1,CC(C)NCCCC(C)Nc1ccnc2ccc3nn(C)nc3c12 (stereo not given),> 100
2,O=C(NN1C(=O)C(Cl)C1c1ccc(O)cc1)c1ccccc1O (stereo not given),43.7
3,O/N=C1/C(=C/c2ccc(Cl)c(Cl)c2)CCCC1C(NO)c1ccc(Cl)c(Cl)c1 (stereo not given),35.2
4,CCOc1ccc(N=Nc2ccc3oc(=O)c(/C(C)=N/NC(=O)CC(=O)Nc4cccc(OC)c4)cc3c2)cc1,30.8
5,O=[N+]([O-])c1ccc(C2=Nn3c(nnc3-c3ccccc3)SC2)o1,32.4

# Tested on: SNB-19 CNS
# Assay: DTP human tumour cell line panel, 48 h
row,SMILES,TGI [µM]
1,CC(C)NCCCC(C)Nc1ccnc2ccc3nn(C)nc3c12 (stereo not given),> 100
2,O=C(NN1C(=O)C(Cl)C1c1ccc(O)cc1)c1ccccc1O (stereo not given),43.7
3,O/N=C1/C(=C/c2ccc(Cl)c(Cl)c2)CCCC1C(NO)c1ccc(Cl)c(Cl)c1 (stereo not given),33.1
4,CCOc1ccc(N=Nc2ccc3oc(=O)c(/C(C)=N/NC(=O)CC(=O)Nc4cccc(OC)c4)cc3c2)cc1,> 79
5,O=[N+]([O-])c1ccc(C2=Nn3c(nnc3-c3ccccc3)SC2)o1,> 100

# Tested on: SNB-75 CNS
# Assay: DTP human tumour cell line panel, 48 h
row,SMILES,TGI [µM]
1,CC(C)NCCCC(C)Nc1ccnc2ccc3nn(C)nc3c12 (stereo not given),> 100
2,O=C(NN1C(=O)C(Cl)C1c1ccc(O)cc1)c1ccccc1O (stereo not given),> 100
3,O/N=C1/C(=C/c2ccc(Cl)c(Cl)c2)CCCC1C(NO)c1ccc(Cl)c(Cl)c1 (stereo not given),31.1
4,O=[N+]([O-])c1ccc(C2=Nn3c(nnc3-c3ccccc3)SC2)o1,38.9

# Tested on: SNB-78 CNS
# Assay: DTP human tumour cell line panel, 48 h
row,SMILES,TGI [µM]
1,CC(C)NCCCC(C)Nc1ccnc2ccc3nn(C)nc3c12 (stereo not given),> 100
2,O=C(NN1C(=O)C(Cl)C1c1ccc(O)cc1)c1ccccc1O (stereo not given),65.4
3,O/N=C1/C(=C/c2ccc(Cl)c(Cl)c2)CCCC1C(NO)c1ccc(Cl)c(Cl)c1 (stereo not given),37.7
4,CCOc1ccc(N=Nc2ccc3oc(=O)c(/C(C)=N/NC(=O)CC(=O)Nc4cccc(OC)c4)cc3c2)cc1,> 95.9
5,O=[N+]([O-])c1ccc(C2=Nn3c(nnc3-c3ccccc3)SC2)o1,44.7

# Tested on: SR leukemia
# Assay: DTP human tumour cell line panel, 48 h
row,SMILES,TGI [µM]
1,CC(C)NCCCC(C)Nc1ccnc2ccc3nn(C)nc3c12 (stereo not given),> 100
2,CCOc1ccc(N=Nc2ccc3oc(=O)c(/C(C)=N/NC(=O)CC(=O)Nc4cccc(OC)c4)cc3c2)cc1,10.1

# Tested on: SW-620 colon
# Assay: DTP human tumour cell line panel, 48 h
row,SMILES,TGI [µM]
1,CC(C)NCCCC(C)Nc1ccnc2ccc3nn(C)nc3c12 (stereo not given),> 100
2,O/N=C1/C(=C/c2ccc(Cl)c(Cl)c2)CCCC1C(NO)c1ccc(Cl)c(Cl)c1 (stereo not given),36
3,CCOc1ccc(N=Nc2ccc3oc(=O)c(/C(C)=N/NC(=O)CC(=O)Nc4cccc(OC)c4)cc3c2)cc1,85.1
4,O=[N+]([O-])c1ccc(C2=Nn3c(nnc3-c3ccccc3)SC2)o1,40.5

# Tested on: TK-10 renal
# Assay: DTP human tumour cell line panel, 48 h
row,SMILES,TGI [µM]
1,CC(C)NCCCC(C)Nc1ccnc2ccc3nn(C)nc3c12 (stereo not given),> 100
2,O=C(NN1C(=O)C(Cl)C1c1ccc(O)cc1)c1ccccc1O (stereo not given),70.6
3,O/N=C1/C(=C/c2ccc(Cl)c(Cl)c2)CCCC1C(NO)c1ccc(Cl)c(Cl)c1 (stereo not given),36.3
4,CCOc1ccc(N=Nc2ccc3oc(=O)c(/C(C)=N/NC(=O)CC(=O)Nc4cccc(OC)c4)cc3c2)cc1,> 100
5,O=[N+]([O-])c1ccc(C2=Nn3c(nnc3-c3ccccc3)SC2)o1,34.5

# Tested on: U251 CNS
# Assay: DTP human tumour cell line panel, 48 h
row,SMILES,TGI [µM]
1,CC(C)NCCCC(C)Nc1ccnc2ccc3nn(C)nc3c12 (stereo not given),> 100
2,O=C(NN1C(=O)C(Cl)C1c1ccc(O)cc1)c1ccccc1O (stereo not given),27.3
3,O/N=C1/C(=C/c2ccc(Cl)c(Cl)c2)CCCC1C(NO)c1ccc(Cl)c(Cl)c1 (stereo not given),34.2
4,CCOc1ccc(N=Nc2ccc3oc(=O)c(/C(C)=N/NC(=O)CC(=O)Nc4cccc(OC)c4)cc3c2)cc1,17.1
5,O=[N+]([O-])c1ccc(C2=Nn3c(nnc3-c3ccccc3)SC2)o1,33.7

# Tested on: UACC-257 melanoma
# Assay: DTP human tumour cell line panel, 48 h
row,SMILES,TGI [µM]
1,CC(C)NCCCC(C)Nc1ccnc2ccc3nn(C)nc3c12 (stereo not given),> 100
2,O=C(NN1C(=O)C(Cl)C1c1ccc(O)cc1)c1ccccc1O (stereo not given),55.9
3,O/N=C1/C(=C/c2ccc(Cl)c(Cl)c2)CCCC1C(NO)c1ccc(Cl)c(Cl)c1 (stereo not given),34.1
4,CCOc1ccc(N=Nc2ccc3oc(=O)c(/C(C)=N/NC(=O)CC(=O)Nc4cccc(OC)c4)cc3c2)cc1,22
5,O=[N+]([O-])c1ccc(C2=Nn3c(nnc3-c3ccccc3)SC2)o1,36.5

# Tested on: UACC-62 melanoma
# Assay: DTP human tumour cell line panel, 48 h
row,SMILES,TGI [µM]
1,CC(C)NCCCC(C)Nc1ccnc2ccc3nn(C)nc3c12 (stereo not given),> 100
2,O=C(NN1C(=O)C(Cl)C1c1ccc(O)cc1)c1ccccc1O (stereo not given),32.3
3,O/N=C1/C(=C/c2ccc(Cl)c(Cl)c2)CCCC1C(NO)c1ccc(Cl)c(Cl)c1 (stereo not given),35
4,CCOc1ccc(N=Nc2ccc3oc(=O)c(/C(C)=N/NC(=O)CC(=O)Nc4cccc(OC)c4)cc3c2)cc1,39.7
5,O=[N+]([O-])c1ccc(C2=Nn3c(nnc3-c3ccccc3)SC2)o1,36.3

# Tested on: UO-31 renal
# Assay: DTP human tumour cell line panel, 48 h
row,SMILES,TGI [µM]
1,CC(C)NCCCC(C)Nc1ccnc2ccc3nn(C)nc3c12 (stereo not given),> 100
2,O=C(NN1C(=O)C(Cl)C1c1ccc(O)cc1)c1ccccc1O (stereo not given),29
3,O/N=C1/C(=C/c2ccc(Cl)c(Cl)c2)CCCC1C(NO)c1ccc(Cl)c(Cl)c1 (stereo not given),35.7
4,CCOc1ccc(N=Nc2ccc3oc(=O)c(/C(C)=N/NC(=O)CC(=O)Nc4cccc(OC)c4)cc3c2)cc1,29.5

# Tested on: XF 498 CNS
# Assay: DTP human tumour cell line panel, 48 h
row,SMILES,TGI [µM]
1,CC(C)NCCCC(C)Nc1ccnc2ccc3nn(C)nc3c12 (stereo not given),> 100
2,O=C(NN1C(=O)C(Cl)C1c1ccc(O)cc1)c1ccccc1O (stereo not given),23.7
3,O/N=C1/C(=C/c2ccc(Cl)c(Cl)c2)CCCC1C(NO)c1ccc(Cl)c(Cl)c1 (stereo not given),33.9
4,CCOc1ccc(N=Nc2ccc3oc(=O)c(/C(C)=N/NC(=O)CC(=O)Nc4cccc(OC)c4)cc3c2)cc1,42
5,O=[N+]([O-])c1ccc(C2=Nn3c(nnc3-c3ccccc3)SC2)o1,38.9
